{"source": "patent US9113629B2", "about": "“4-amino-6-(4-substituted-phenyl)-picolinates and 6-amino-2-(4-substituted-phenyl)-pyrimidine-4-carboxylates and their use as herbicides” (DOW AGROSCIENCES LLC, priority 2013, dated 2015)", "key": {"[1]": {"system": "Key Broadleaf Weed and Crop Species", "test": "Post-emergent Test II herbicidal activity (Table 5)", "assay_type": "in vivo", "conditions": "post-emergence, 336 h, 14 days after application; for pest or weed control at 70 g/ha: application rate 70 g ai/ha; for pest or weed control at 140 g/ha: application rate 140 g ai/ha", "method_in_brief": "(§1)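 Plants grown in Metro-Mix 360 (pH 6.0–6.8) in a greenhouse (~15 h photoperiod, 23–29 °C day) to first or second true leaf stage, then sprayed with compound in acetone/DMSO/aqueous crop-oil-surfactant carrier at 187 L/ha by track sprayer. Injury visually scored 0–100% versus untreated plants after 14 d.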"}, "[2]": {"system": "Key Grass and Sedge Weeds as well as Grass Crops", "test": "Post-emergent Test II herbicidal activity (Table 6)", "assay_type": "in vivo", "conditions": "post-emergence, 336 h; for pest or weed control at 70 g/ha: 70 g ai/ha; for pest or weed control at 140 g/ha: 140 g ai/ha", "method_in_brief": "as §1"}, "[3]": {"conditions": "ABUTH: velvetleaf (Abutilon theophrasti), read-out: Visual Growth Reduction (%) 14 Days After Application, ABUTH"}, "[4]": {"conditions": "AMARE: redroot pigweed (Amaranthus retroflexus), read-out: Visual Growth Reduction (%) 14 Days After Application, AMARE"}, "[5]": {"conditions": "BRSNN: oilseed-rape, canola (Brassica napus), read-out: Visual Growth Reduction (%) 14 Days After Application, BRSNN"}, "[6]": {"conditions": "CHEAL: lambsquarters (Chenopodium album), read-out: Visual Growth Reduction (%) 14 Days After Application, CHEAL"}, "[7]": {"conditions": "EPHHL: wild poinsettia (Euphorbia heterophylla), read-out: Visual Growth Reduction (%) 14 Days After Application, EPHHL"}, "[8]": {"conditions": "HELAN: sunflower (Helianthus annuus), read-out: Visual Growth Reduction (%) 14 Days After Application, HELAN"}, "[9]": {"conditions": "VIOTR: wild pansy (Viola tricolor), read-out: Visual Growth Reduction (%) 14 Days After Application, VIOTR"}, "[10]": {"conditions": "CYPES: yellow nutsedge (Cyperus esculentus), read-out: Visual Growth Reduction (%) 14 Days After Application, CYPES"}, "[11]": {"conditions": "DIGSA: crabgrass (Digitaria sanguinalis), read-out: Visual Growth Reduction (%) 14 Days After Application, DIGSA"}, "[12]": {"conditions": "ECHCG: barnyardgrass (Echinochloa crus-galli), read-out: Visual Growth Reduction (%) 14 Days After Application, ECHCG"}, "[13]": {"conditions": "ORYSA: rice (Oryza sativa), crop, read-out: Visual Growth Reduction (%) 14 Days After Application, ORYSA"}, "[14]": {"conditions": "SETFA: giant foxtail (Setaria faberi), read-out: Visual Growth Reduction (%) 14 Days After Application, SETFA"}, "[15]": {"conditions": "SORVU: grain sorghum (Sorghum vulgare), read-out: Visual Growth Reduction (%) 14 Days After Application, SORVU"}, "[16]": {"conditions": "TRZSS (wheat, Triticum aestivum), crop, read-out: Visual Growth Reduction (%) 14 Days After Application, TRZSS"}, "[17]": {"conditions": "ZEAMX: maize, corn (Zea mays), crop, read-out: Visual Growth Reduction (%) 14 Days After Application, ZEAMX"}}, "note": "Read-outs that look alike come from different tables or passages of the source."}
{"smiles": "COC(=O)c1nc(-c2ccc(C(F)(F)F)c(F)c2F)nc(N)c1OC", "note": "[Compound 64]", "values": [{"measurement": "pest or weed control at 70 g/ha", "setting": "[1]; [3]", "result": "95 to 100", "unit": "%"}, {"measurement": "pest or weed control at 140 g/ha", "setting": "[1]; [3]", "result": "95 to 100", "unit": "%"}, {"measurement": "pest or weed control at 70 g/ha", "setting": "[1]; [4]", "result": "45 to 59", "unit": "%"}, {"measurement": "pest or weed control at 140 g/ha", "setting": "[1]; [4]", "result": "75 to 84", "unit": "%"}, {"measurement": "pest or weed control at 70 g/ha", "setting": "[1]; [5]", "result": "75 to 84", "unit": "%"}, {"measurement": "pest or weed control at 140 g/ha", "setting": "[1]; [5]", "result": "85 to 94", "unit": "%"}, {"measurement": "pest or weed control at 70 g/ha", "setting": "[1]; [6]", "result": "95 to 100", "unit": "%"}, {"measurement": "pest or weed control at 140 g/ha", "setting": "[1]; [6]", "result": "95 to 100", "unit": "%"}, {"measurement": "pest or weed control at 70 g/ha", "setting": "[1]; [7]", "result": "95 to 100", "unit": "%"}, {"measurement": "pest or weed control at 140 g/ha", "setting": "[1]; [7]", "result": "95 to 100", "unit": "%"}, {"measurement": "pest or weed control at 70 g/ha", "setting": "[1]; [8]", "result": "95 to 100", "unit": "%"}, {"measurement": "pest or weed control at 140 g/ha", "setting": "[1]; [8]", "result": "95 to 100", "unit": "%"}, {"measurement": "pest or weed control at 70 g/ha", "setting": "[1]; [9]", "result": "60 to 74", "unit": "%"}, {"measurement": "pest or weed control at 140 g/ha", "setting": "[1]; [9]", "result": "60 to 74", "unit": "%"}, {"measurement": "melting point", "result": "140 to 141", "unit": "°C"}, {"measurement": "pest or weed control at 70 g/ha", "setting": "[2]; [10]", "result": "45 to 59", "unit": "%"}, {"measurement": "pest or weed control at 140 g/ha", "setting": "[2]; [10]", "result": "60 to 74", "unit": "%"}, {"measurement": "pest or weed control at 70 g/ha", "setting": "[2]; [11]", "result": "60 to 74", "unit": "%"}, {"measurement": "pest or weed control at 140 g/ha", "setting": "[2]; [11]", "result": "85 to 94", "unit": "%"}, {"measurement": "pest or weed control at 70 g/ha", "setting": "[2]; [12]", "result": "45 to 59", "unit": "%"}, {"measurement": "pest or weed control at 140 g/ha", "setting": "[2]; [12]", "result": "85 to 94", "unit": "%"}, {"measurement": "pest or weed control at 70 g/ha", "setting": "[2]; [13]", "result": "0 to 29", "unit": "%"}, {"measurement": "pest or weed control at 140 g/ha", "setting": "[2]; [13]", "result": "0 to 29", "unit": "%"}, {"measurement": "pest or weed control at 70 g/ha", "setting": "[2]; [14]", "result": "30 to 44", "unit": "%"}, {"measurement": "pest or weed control at 140 g/ha", "setting": "[2]; [14]", "result": "60 to 74", "unit": "%"}, {"measurement": "pest or weed control at 70 g/ha", "setting": "[2]; [15]", "result": "30 to 44", "unit": "%"}, {"measurement": "pest or weed control at 140 g/ha", "setting": "[2]; [15]", "result": "45 to 59", "unit": "%"}, {"measurement": "pest or weed control at 70 g/ha", "setting": "[2]; [16]", "result": "30 to 44", "unit": "%"}, {"measurement": "pest or weed control at 140 g/ha", "setting": "[2]; [16]", "result": "45 to 59", "unit": "%"}, {"measurement": "pest or weed control at 70 g/ha", "setting": "[2]; [17]", "result": "95 to 100", "unit": "%"}, {"measurement": "pest or weed control at 140 g/ha", "setting": "[2]; [17]", "result": "95 to 100", "unit": "%"}]}
